For data set [1], the system named is Peptostreptococcus anaerobius (ATCC 27337).
The test system of data set [2] is Eggerthella lenta (ATCC 27337).
Data set [3] relates to Lactobacillus acidophilus (CCUG 4356).
The test system of data set [4] is VRE Enterococcus faecalis. The following applies: VRE.
For data set [5], the system named is Heliobacter pylori.
For data set [6] the following is noted: simulated gi fluid.
In data set [7] the test system is Clostridium scindens (ATCC 35704).
Data set [8] deals with VRE Enterococcus faecium.
A short description of data set [9]: in vitro. The procedure:
Assay incubation conditions included […] simulated gastric fluid (SGF, USP 39 Test Solution; 2 g/L NaCl, 7 mL/L glacial HCl, pH 1.4) containing 1.75 mg/mL Pepsin (3200-4500 U/mg) mixed with 7.5 μL of 10 mg/mL variant (or positive control, NH2-Met-Arg-Phe-Ala-OH, MRFA, CAS#67368-29-0) for a final concentration of 300 μg/ml variant in a microfuge tube. Samples were incubated at 37° C. and analyzed using HPLC or LC-MS for loss of substrate. The percent remaining, elimination rate constant (Ke), and in vitro protein half-lives were calculated. A control of SGF without enzyme was also run and analyzed in the same manner for each variant.

The mark [10] stands for this setting: FaSSIF + 1% pancreatin + 3 μg/ml trypsin + 3 μg/ml chymotrypsin half-life.

Values after ≈ are worked out from the molar mass of the structure shown. Like-named read-outs stand apart in the source and are kept apart here. Where a SMILES comes first, the peptide text is derived from it. Where only a bound is given, the exact number is not on record here.

Turning to `C=C1NC(=O)[C@H](Cc2c[nH]c3ccccc23)NC(=O)[C@H](NC(=O)[C@H](CCCCN)NC(=O)[C@@H](N)[C@@H](C)CC)CSC[C@@H](C(=O)N[C@H]2C(=O)N3CCC[C@H]3C(=O)NCC(=O)N[C@H](C(=O)N[C@@H](C)C(=O)N[C@@H](CC(N)=O)C(=O)NC(=CC)C(=O)N[C@@H](C)C(=O)N[C@@H]3CSC[C@@H]4NC(=O)[C@H](Cc5ccc(O)cc5)NC(=O)[C@@H](CS/C=C\NC4=O)NC(=O)[C@H](CC(N)=O)NC(=O)[C@H](Cc4ccccc4)NC3=O)CS[C@H]2C)NC(=O)[C@H](CC(C)C)NC1=O` [F1I R13N G15A], the “MIC P. anaerobius” value in data set [1] stood at 4 µg/mL (≈ 1.82 µM). Also, the “MIC E. lenta” value in [2] was found to be 8 µg/mL (≈ 3.63 µM). Moreover, in data set [3], the “MIC L. acidophilus” value stood at 8 µg/mL (≈ 3.63 µM). In data set [4], the “MIC VRE ATCC 51575” value turned out to be 32 µg/mL (≈ 14.5 µM) and the “MIC VRE CCUG 47775” value is over 64 µg/mL. Besides, in data set [5], the “MIC to H. Pylori without EDTA” value was over 64 µg/mL and the “MIC to H. Pylori with 0.05M EDTA” value turned out to be 64 µg/mL. Further, the half-life in [6] (setting [10]) was over 12 h. In [6] (FaSSIF only half-life), this compound registered a half-life of over 12 h. Also, the “MIC C. scindens” value in data set [7] was found to be 16 µg/mL (≈ 7.26 µM). Also, the “MIC VRE ATCC 700221” value in data set [8] was 32 µg/mL (≈ 14.5 µM).

For the compound `C=C1NC(=O)[C@H](CCSC)NC(=O)[C@H](NC(=O)[C@H](CCCCN)NC(=O)[C@@H](N)[C@@H](C)CC)CSC[C@@H](C(=O)N[C@H]2C(=O)N3CCC[C@H]3C(=O)NCC(=O)N[C@H](C(=O)N[C@@H](C)C(=O)N[C@@H](C)C(=O)NC(=CC)C(=O)NCC(=O)N[C@@H]3CSC[C@@H]4NC(=O)[C@H](Cc5ccc(O)cc5)NC(=O)[C@@H](CS/C=C\NC4=O)NC(=O)[C@H](CC(N)=O)NC(=O)[C@H](Cc4ccccc4)NC3=O)CS[C@H]2C)NC(=O)[C@H](CC(C)C)NC1=O` [F1I W4M R13A], the “MIC P. anaerobius” value in data set [1] is 8 µg/mL (≈ 3.83 µM). Also, the “MIC E. lenta” value in data set [2] was 16 µg/mL (≈ 7.65 µM). Further, the “MIC L. acidophilus” value in [3] came to 32 µg/mL (≈ 15.3 µM). Besides, in data set [4], the “MIC VRE ATCC 51575” value is over 64 µg/mL and the “MIC VRE CCUG 47775” value was over 64 µg/mL. Also, in [5], the “MIC to H. Pylori without EDTA” value was determined as 64 µg/mL (≈ 30.6 µM) and the “MIC to H. Pylori with 0.05M EDTA” value came out at 64 µg/mL. For the same compound, the half-life in [6] (setting [10]) was 5.82 h. The same compound registered a half-life in data set [6] (FaSSIF only half-life) of over 12 h. In data set [7], the “MIC C. scindens” value was 32 µg/mL (≈ 15.3 µM). In data set [8], the “MIC VRE ATCC 700221” value is over 64 µg/mL.

As to `C=C1NC(=O)[C@H](Cc2c[nH]c3ccccc23)NC(=O)[C@H](NC(=O)[C@H](CCCCN)NC(=O)[C@@H](N)CC(C)C)CSC[C@@H](C(=O)N[C@H]2C(=O)N3CCC[C@H]3C(=O)NCC(=O)N[C@H](C(=O)N[C@@H](C)C(=O)N[C@@H](CC(=O)O)C(=O)NC(=CC)C(=O)NCC(=O)N[C@@H]3CSC[C@@H]4NC(=O)[C@H](Cc5ccc(O)cc5)NC(=O)[C@@H](CS/C=C\NC4=O)NC(=O)[C@H](CC(N)=O)NC(=O)[C@H](Cc4ccccc4)NC3=O)CS[C@H]2C)NC(=O)[C@H](CC(C)C)NC1=O` [F1L R13D], the “MIC P. anaerobius” value in data set [1] worked out at 2 µg/mL (≈ 0.913 µM). The “MIC E. lenta” value in [2] turned out to be 1 µg/mL (≈ 0.457 µM). Besides, the “MIC L. acidophilus” value in [3] was 8 µg/mL (≈ 3.65 µM). Further, in data set [4], the “MIC VRE ATCC 51575” value came to 64 µg/mL (≈ 29.2 µM). Besides, the “MIC VRE CCUG 47775” value in [4] was determined as 32 µg/mL (≈ 14.6 µM). Also, the “MIC to H. Pylori without EDTA” value in data set [5] was determined as 8 µg/mL (≈ 3.65 µM). Further, the “MIC to H. Pylori with 0.05M EDTA” value in [5] turned out to be 4 µg/mL. Moreover, the results for the half-life in data set [9] (simulated gi fluid), in data set [6] (setting [10]) and in [6] (FaSSIF only half-life) were over 24 h, over 12 h and over 12 h, respectively. In data set [7], the “MIC C. scindens” value was 8 µg/mL (≈ 3.65 µM). Moreover, the “MIC VRE ATCC 700221” value in data set [8] was determined as 32 µg/mL (≈ 14.6 µM).

For `C=C1NC(=O)[C@H](Cc2c[nH]c3ccccc23)NC(=O)[C@H](NC(=O)[C@H](CCCCN)NC(=O)[C@@H](N)CO)CSC[C@@H](C(=O)N[C@H]2C(=O)N3CCC[C@H]3C(=O)NCC(=O)N[C@H](C(=O)N[C@@H](C)C(=O)N[C@@H](CC(N)=O)C(=O)NC(=CC)C(=O)NCC(=O)N[C@@H]3CSC[C@@H]4NC(=O)[C@H](Cc5ccc(O)cc5)NC(=O)[C@@H](CS/C=C\NC4=O)NC(=O)[C@H](CC(N)=O)NC(=O)[C@H](Cc4ccccc4)NC3=O)CS[C@H]2C)NC(=O)[C@H](CC(C)C)NC1=O` [F1S R13N], the “MIC P. anaerobius” value in data set [1] was 8 µg/mL (≈ 3.7 µM). Further, the “MIC E. lenta” value in [2] came out at 16 µg/mL (≈ 7.4 µM). For the same compound, the “MIC L. acidophilus” value in [3] came out at 16 µg/mL (≈ 7.4 µM). In addition, in [4], the “MIC VRE ATCC 51575” value was over 64 µg/mL and the “MIC VRE CCUG 47775” value was over 64 µg/mL. In data set [5], the “MIC to H. Pylori without EDTA” value is over 64 µg/mL and the “MIC to H. Pylori with 0.05M EDTA” value is over 64 µg/mL. Further, the half-life in data set [6] (setting [10]) is over 12 h. The compound also returned a half-life in data set [6] (FaSSIF only half-life) of over 12 h. Further, the “MIC C. scindens” value in [7] is 32 µg/mL (≈ 14.8 µM). Further, the “MIC VRE ATCC 700221” value in data set [8] is 64 µg/mL (≈ 29.6 µM).

With `C=C1NC(=O)[C@H](Cc2c[nH]c3ccccc23)NC(=O)[C@H](NC(=O)[C@H](CCCCN)NC(=O)[C@@H](N)[C@@H](C)O)CSC[C@@H](C(=O)N[C@H]2C(=O)N3CCC[C@H]3C(=O)NCC(=O)N[C@H](C(=O)N[C@@H](C)C(=O)NCC(=O)NC(=CC)C(=O)NCC(=O)N[C@@H]3CSC[C@@H]4NC(=O)[C@H](Cc5ccc(O)cc5)NC(=O)[C@@H](CS/C=C\NC4=O)NC(=O)[C@H](CC(N)=O)NC(=O)[C@H](Cc4ccccc4)NC3=O)CS[C@H]2C)NC(=O)[C@H](CC(C)C)NC1=O` [F1T R13G], in data set [1], the “MIC P. anaerobius” value amounted to 8 µg/mL (≈ 3.77 µM). In addition, the “MIC E. lenta” value in [2] was 8 µg/mL (≈ 3.77 µM). Moreover, the “MIC L. acidophilus” value in data set [3] is 8 µg/mL (≈ 3.77 µM). Besides, in [4], the “MIC VRE ATCC 51575” value was 64 µg/mL (≈ 30.2 µM) and the “MIC VRE CCUG 47775” value stood at 64 µg/mL (≈ 30.2 µM). In data set [5], the “MIC to H. Pylori without EDTA” value is over 64 µg/mL and the “MIC to H. Pylori with 0.05M EDTA” value was over 64 µg/mL. Also, the half-life in [6] (setting [10]) is 1.9 h. The compound also returned a half-life in [6] (FaSSIF only half-life) of over 12 h. In data set [7], the “MIC C. scindens” value stood at 64 µg/mL (≈ 30.2 µM). Also, the “MIC VRE ATCC 700221” value in [8] was found to be 32 µg/mL (≈ 15.1 µM).

As for `CSCC[C@H](N)C(=O)N[C@@H](CCCNC(=N)N)C(=O)N[C@@H](Cc1ccccc1)C(=O)N[C@@H](C)C(=O)O` [Positive Control, NH2-Met-Arg-Phe-Ala-OH, reference compound] (H-MRFA-OH), the half-life at 300 μg/ml in data set [9] (simulated gastric fluid without enzyme, pH 1.4) was over 24 h.

These data come from US20190315814A1, “LANTIBIOTIC VARIANTS AND USES THEREOF” (priority 2016, published 2019).
